The text below walks through data of US8541365B2, “Dendrimeric compounds comprising amino acids, hyperbranched core compound, process for preparation of dendrimeric compounds comprising amino acids and hyperbranched core compound, and use thereof” (Instytut Chemii Organicznej, Polska Akademia Nauk, priority 2008, dated 2013).

For experiment [1], the system named is human melanoma cells (MEW 155). To be noted: MEW 155 cells, 3 days culture. The protocol:
Human melanoma cells (MEW 155) received from Institute of Oncology were inoculated on Petri dishes (Ø3 cm, Nunc) to the number of about 75 000, suspended in 3 ml of Eagle medium+10% FBS+antibiotics. Immediately after the inoculation, solutions of tested substances were added to the cells (a substance +20 ml PBS) at 0.5 ml per dish. After culturing for 3 days, numbers of cells (all, dead and alive) at each dish were determined with NucleoCounter apparatus (Chemometec).

The test system of experiment [2] is C. albicans ATCC 10231. The protocol: Values of a minimal inhibitory concentration—MIC of compounds according to the invention for bacterial strains were assayed by a standard method of microdilutions on a liquid substrate (Clinical and Laboratory Standards Institute 2007. Methods for Dilution Antimicrobial Susceptibility Tests for Bacteria That Grow Aerobically. Approved Standard—Seventh Edition. M7-A7. Clinical and Laboratory Standards Institute, Wayne, Pa., USA).
A series of double dilutions of the tested compounds in DMSO was prepared. They were then diluted 95× in CAMHB (Cation Adjusted Mueller—Hinton Broth).
Bacteria were cultured for 24 h at 35° C. under aerobic conditions on a solid TSA (Triptic Soy Agar) medium. A volume of a proper test was 0.1 ml and was composed of: 0.005 ml of a saline suspension of bacteria at a density of 10^7 CFU/ml (final bacteria amount of 5×10^5/ml) and 0.095 ml of a tested compound CAMHB solution. Final concentrations of compounds in the proper test were (μg/ml): 128, 64, 32, 16, 8, 4, 2, 1.
e) C. albicans ATCC 10231.

Experiment [3] concerns S. aureus ATCC 25923. The experiment is classed as cell-based, Staphylococus aureus subsp. aureus. The following applies: S. aureus ATCC 25923; microdilution in CAMHB, 18 h at 35° C. Here is the method: (§1) Titration plates with a, b, d strains were incubated for 18 h at 35° C. under aerobic conditions, and the c strain was incubated for 18 h at 33° C. under aerobic conditions.
b) Staphylococus aureus subsp. aureus ATCC 25923,
A general note: In broth dilution the organism is exposed to a series of concentrations in liquid medium.

The test system of experiment [4] is E. coli ATTC 25922. It counts as cell-based, Escherichia coli. The following applies: E. coli ATTC 25922; microdilution in CAMHB, 18 h at 35° C. The protocol: as §1
d) Escherichia coli ATCC 25922

Experiment [5] has as its system P. aeruginosa ATTC 27853. It counts as cell-based, Pseudomonas aeruginosa. The following applies: P. aeruginosa ATTC 27853; microdilution in CAMHB, 18 h at 35° C. Here is the method: as §1
a) Pseudomonas aeruginosa ATCC 27853,

The test system of experiment [6] is S. aureus ATTC 43300. The experiment is classed as cell-based, Staphylococus aureus subsp. aureus. To be noted: S. aureus ATTC 43300; microdilution in CAMHB, 18 h at 33° C. The protocol:
as §1
c) Staphylococus aureus subsp. aureus ATCC 43300,

Read-outs that look alike come from different tables or passages of the source.

Regarding `CCCCCCCCCCCCNC(=O)[C@H](CCCN(CCC(=O)NCCNC(=O)[C@H](CCCCN)NC(=O)OCc1ccccc1Cl)CCC(=O)NCCNC(=O)[C@H](CCCCN)NC(=O)OCc1ccccc1Cl)N(CCC(=O)NCCNC(=O)[C@H](CCCCN)NC(=O)OCc1ccccc1Cl)CCC(=O)NCCNC(=O)[C@H](CCCCN)NC(=O)OCc1ccccc1Cl` [Compound 109], the “Live cells (%)” value in experiment [1] (concentration 25.7 μMol dm^−3) stood at 1.5%. Moreover, the “Minimal inhibitory concentration (MIC)” value in experiment [2] was found to be 69 μM/L.
`NC[C@H](NC(=O)OCc1ccccc1)C(=O)NCCNC(=O)CCN(CCCC[C@@H](C(=O)NCCc1c[nH]c2ccccc12)N(CCC(=O)NCCNC(=O)[C@H](CN)NC(=O)OCc1ccccc1)CCC(=O)NCCNC(=O)[C@H](CN)NC(=O)OCc1ccccc1)CCC(=O)NCCNC(=O)[C@H](CN)NC(=O)OCc1ccccc1` [Compound 105]: the “Minimal inhibitory concentration (MIC)” value in experiment [3] is given as 38 μM/L; in experiment [4] it was 81 μM/L; in experiment [5] it was 81 μM/L; in experiment [6], 81 μM/L; in experiment [2] it was 81 μM/L. In addition, the “Live cells (%)” value in experiment [1] (concentration 10.0 μMol dm^−3) was 97.7%.
For the compound `NCCCC[C@H](NC(=O)OCc1ccccc1Cl)C(=O)NCCNC(=O)CCN(CCC(=O)NCCNC(=O)[C@H](CCCCN)NC(=O)OCc1ccccc1Cl)CC[C@@H](C(=O)NCCc1c[nH]c2ccccc12)N(CCC(=O)NCCNC(=O)[C@H](CCCCN)NC(=O)OCc1ccccc1Cl)CCC(=O)NCCNC(=O)[C@H](CCCCN)NC(=O)OCc1ccccc1Cl` [Compound 94], the “Minimal inhibitory concentration (MIC)” value worked out at 0.94 μM/L in experiment [3], 12.2 μM/L in experiment [4], 70 μM/L in experiment [5] and 10.12 μM/L in experiment [6]. In addition, the “Live cells (%)” value in experiment [1] (concentration 12.13 μMol dm^−3) is given as 88.4%.
